Test results from US12357603B2, “Acyl sulfonamides for treating cancer” (Bayer Aktiengesellschaft, priority 2019, dated 2025).

Assays:
[1] = test system: ESR1 transcription (luciferase signal in MVLN cells); assay: Repression of ESR1 transcription, luciferase reporter in MVLN cells; assay type: cell-based; details: Homo sapiens, MVLN, inhibition of luciferase signal in MVLN cells; arithmetic mean
In short: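 MVLN cells (constitutive ER, stably carrying a Vitellogenin A2 hormone-responsive element–luciferase reporter) treated in duplicate; luciferase read after 24 h. Cell density checked by Alamar Blue fluorescence (530/590 nm) after 2 h to exclude cell-loss effects.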

MDA-MB-436 cells = assay: Proliferation assay MDA-MB-436, negative control cell line (Alamar Blue, 144 h); assay type: cell-based; details: Homo sapiens, MDA-MB-436, 144 h, arithmetic mean
In short: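 MDA-MB-436 cells (3000/well, DMEM/Ham's F12 with 2.5% FBS) treated 24 h after plating with compounds at 2.0×10E-5 to 2.0×10E-9 M (9 dilutions, 0.2% DMSO), triplicates, 144 h at 37 °C, 5% CO2. Viability by Alamar Blue, 2 h, fluorescence at 590 nm.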

[2] = biological target: Recombinant human His-tagged Kat6a protein (amino acids 194-810) (Homo sapiens (Human), UniProt Q92794); assay: Kat6a activity assay (TR-FRET, acetylation of biotinylated Histone-H4-derived peptide); assay type: biochemical; details: 60 mins at 22° C., read-out: KAT6A-DPF/HAT domain IC50 [mol/l] (arithmetic mean)
Chain of Recombinant human His-tagged Kat6a protein (amino acids 194-810) (Q92794 194-810): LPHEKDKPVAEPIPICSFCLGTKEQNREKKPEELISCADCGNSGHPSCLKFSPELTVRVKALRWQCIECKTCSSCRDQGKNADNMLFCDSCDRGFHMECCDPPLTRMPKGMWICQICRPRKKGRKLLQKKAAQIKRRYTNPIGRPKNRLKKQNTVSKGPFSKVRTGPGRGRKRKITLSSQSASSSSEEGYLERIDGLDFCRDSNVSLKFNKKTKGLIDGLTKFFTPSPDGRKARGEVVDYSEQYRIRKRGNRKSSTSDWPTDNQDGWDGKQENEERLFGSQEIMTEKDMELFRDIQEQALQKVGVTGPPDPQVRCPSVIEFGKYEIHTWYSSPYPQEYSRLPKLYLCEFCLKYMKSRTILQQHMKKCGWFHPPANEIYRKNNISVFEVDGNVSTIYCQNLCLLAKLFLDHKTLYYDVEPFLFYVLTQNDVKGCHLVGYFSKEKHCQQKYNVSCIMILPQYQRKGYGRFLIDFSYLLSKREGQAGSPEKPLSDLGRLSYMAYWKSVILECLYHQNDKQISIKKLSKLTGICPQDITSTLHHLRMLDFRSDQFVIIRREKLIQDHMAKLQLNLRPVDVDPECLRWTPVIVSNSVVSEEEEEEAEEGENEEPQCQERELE
In short: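 Sf9-expressed human His-Kat6a (aa 194-810) incubated 60 min at 22 °C with compounds (0.01-20 μM) in Tris pH 8 buffer containing 220 nM biotinylated H4 peptide (aa 1-24) and 600 nM acetyl-CoA. Acetyl-K8 detected by TR-FRET (665/620 nm ratio); IC50 by four-parameter fit versus DMSO controls.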

ZR-75-1 cells = assay: Proliferation assay ZR-75-1 (Alamar Blue, 144 h); assay type: cell-based; details: Homo sapiens, ZR-75-1, 144 h, arithmetic mean, read-out: ZR75-1 proliferation assay, EC50 [M] (arithmetic mean)
In short: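 Cells seeded at 3000/well in RPMI 1640 with 2.5% FBS and treated 24 h later across 2.0×10E-5 to 2.0×10E-9 M (9 dilutions, 0.2% DMSO, triplicate). After 144 h at 37 °C, 5% CO2, viability read by Alamar Blue fluorescence at 590 nm following 2 h reagent incubation.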

[3] = biological target: Recombinant human GST-tagged Kat6b protein (431-end); assay: Kat6b activity assay (TR-FRET, acetylation of biotinylated Histone-H4-derived peptide); assay type: biochemical; details: 30 mins at 22° C., read-out: KAT6B activity assay IC50 [mol/l] (arithmetic mean)

Question: `CN(C)c1ccc2cc(C(=O)NS(=O)(=O)c3ccccc3OCCNC(=O)OC(C)(C)C)oc2c1` [Example 117, tert-butyl [2-(2-{[6-(dimethylamino)-1-benzofuran-2-carbonyl]sulfamoyl}phenoxy)ethyl]carbamate] was tested. Which IC50 [1] did it give?
Answer: 276 nM

Question: What about the EC50 (MDA-MB-436 cells) of the same compound?
Answer: > 20000 nM

Question: What about the IC50 [2] of the same compound?
Answer: 294 nM

Question: And the EC50 (ZR-75-1 cells)?
Answer: 6.03e-07 M

Question: What about the IC50 [3] of the same compound?
Answer: 342 nM

Question: With `CCCOc1cccc(CC)c1S(=O)(=O)NC(=O)c1cc2ccc(N(C)C)cc2o1` [Example 119, 6-(Dimethylamino)-N-(2-ethyl-6-propoxybenzene-1-sulfonyl)-1-benzofuran-2-carboxamide] as the compound, how does the IC50 [1] read?
Answer: 218 nM

Question: And the EC50 (MDA-MB-436 cells)?
Answer: > 20000 nM

Question: And the IC50 [2]?
Answer: 185 nM

Question: And the EC50 (ZR-75-1 cells)?
Answer: 6.98e-07 M

Question: What about the IC50 [3] of the same compound?
Answer: 374 nM

Question: With `CCOc1cccc(Br)c1S(=O)(=O)NC(=O)c1cc2ccc(N(C)C)cc2o1` [Example 121, N-(2-Bromo-6-ethoxybenzene-1-sulfonyl)-6-(dimethylamino)-1-benzofuran-2-carboxamide] as the compound, how does the IC50 [1] read?
Answer: 275 nM

Question: And the EC50 (MDA-MB-436 cells)?
Answer: > 20000 nM

Question: And the IC50 [2]?
Answer: 179 nM

Question: What about the EC50 (ZR-75-1 cells) of the same compound?
Answer: 3.56e-07 M

Question: What about the IC50 [3] of the same compound?
Answer: 227 nM

Question: For `CCOc1cccc(F)c1S(=O)(=O)NC(=O)c1cc2ccc(N(C)C)cc2o1` [Example 123, 6-(Dimethylamino)-N-(2-ethoxy-6-fluorobenzene-1-sulfonyl)-1-benzofuran-2-carboxamide], which IC50 [1] is on record?
Answer: 179 nM

Question: And the EC50 (MDA-MB-436 cells)?
Answer: > 20000 nM

Question: And the IC50 [2]?
Answer: 275 nM

Question: What about the EC50 (ZR-75-1 cells) of the same compound?
Answer: 1.19e-07 M

Question: What about the IC50 [3] of the same compound?
Answer: 257 nM

Question: Which results are given for `CN(C)c1ccc2cc(C(=O)NS(=O)(=O)c3cccc4ccc(Cl)nc34)oc2c1` [Example 126, N-(2-Chloroquinoline-8-sulfonyl)-6-(dimethylamino)-1-benzofuran-2-carboxamide]?
Answer: IC50 [1]: 30.6 nM; EC50 (MDA-MB-436 cells): > 20000 nM; IC50 [2]: 20.5 nM; EC50 (ZR-75-1 cells): 6.98e-08 M; IC50 [3]: 23.8 nM

Question: What does the source list for `CCOc1ccc(C(C)C)cc1S(=O)(=O)NC(=O)c1cc2ccc(N(C)C)cc2o1` [Example 129, 6-(Dimethylamino)-N-[2-ethoxy-5-(propan-2-yl)benzene-1-sulfonyl]-1-benzofuran-2-carboxamide]?
Answer: IC50 [1]: 28.6 nM; EC50 (MDA-MB-436 cells): > 20000 nM; IC50 [2]: 13.5 nM; EC50 (ZR-75-1 cells): 6.17e-07 M; IC50 [3]: 16.8 nM

Question: How did the IC50 [1] turn out when `COc1cccc(C(F)(F)F)c1S(=O)(=O)NC(=O)c1cc2ccc(N(C)C)cc2o1` [Example 132, 6-(Dimethylamino)-N-[2-methoxy-6-(trifluoromethyl)benzene-1-sulfonyl]-1-benzofuran-2-carboxamide] was run?
Answer: 80.1 nM

Question: And the EC50 (MDA-MB-436 cells)?
Answer: > 20000 nM

Question: And the IC50 [2]?
Answer: 134 nM

Question: What about the EC50 (ZR-75-1 cells) of the same compound?
Answer: 1.05e-07 M

Question: What about the IC50 [3] of the same compound?
Answer: 72.7 nM

Question: Which IC50 [1] does the source give for `CN(C)c1ccc2cc(C(=O)NS(=O)(=O)c3cc(Cl)c(Cl)cc3OC(F)(F)F)oc2c1` [Example 137, N-[4,5-Dichloro-2-(trifluoromethoxy)benzene-1-sulfonyl]-6-(dimethylamino)-1-benzofuran-2-carboxamide] here?
Answer: 5500 nM

Question: And the EC50 (MDA-MB-436 cells)?
Answer: > 20000 nM

Question: What about the IC50 [2] of the same compound?
Answer: 81.5 nM

Question: What about the EC50 (ZR-75-1 cells) of the same compound?
Answer: 5.61e-06 M

Question: And the IC50 [3]?
Answer: 107 nM

Question: Which results are given for `COc1cc(C)c(Cl)cc1S(=O)(=O)NC(=O)c1cc2ccc(N(C)C)cc2o1` [Example 138, N-(5-Chloro-2-methoxy-4-methylbenzene-1-sulfonyl)-6-(dimethylamino)-1-benzofuran-2-carboxamide]?
Answer: IC50 [1]: 216 nM; EC50 (MDA-MB-436 cells): > 20000 nM; IC50 [2]: 56.7 nM; EC50 (ZR-75-1 cells): 5.01e-07 M; IC50 [3]: 79.5 nM

Question: With `COc1ccc(Cl)c(S(=O)(=O)NC(=O)c2cc3ccc(N(C)C)cc3o2)c1` [Example 139, N-(2-Chloro-5-methoxybenzene-1-sulfonyl)-6-(dimethylamino)-1-benzofuran-2-carboxamide] as the compound, how does the IC50 [1] read?
Answer: 1370 nM

Question: And the EC50 (MDA-MB-436 cells)?
Answer: > 20000 nM

Question: And the IC50 [2]?
Answer: 329 nM

Question: What about the EC50 (ZR-75-1 cells) of the same compound?
Answer: 7.07e-07 M

Question: And the IC50 [3]?
Answer: 369 nM

Question: For `CN(C)c1ccc2cc(C(=O)NS(=O)(=O)c3c(F)cccc3OC3CCC3)oc2c1` [Example 142, N-[2-(Cyclobutyloxy)-6-fluorobenzene-1-sulfonyl]-6-(dimethylamino)-1-benzofuran-2-carboxamide], which IC50 [1] is on record?
Answer: 166 nM

Question: What about the EC50 (MDA-MB-436 cells) of the same compound?
Answer: > 20000 nM

Question: And the IC50 [2]?
Answer: 139 nM

Question: What about the EC50 (ZR-75-1 cells) of the same compound?
Answer: 4.37e-07 M

Question: And the IC50 [3]?
Answer: 229 nM
